From publication PMC2574845 (Drug metabolism and disposition: the biological fate of …, 2008)

Legend:
[1] = BA-glutathione conjugate formation; conditions: 50 μM BA; for fraction of BA conjugated with glutathione / relative rate of glutathione conjugate formation, rank order: 5 mM glutathione, pH 7.4, room temperature; for fraction of BA conjugated with glutathione: data not shown
[2] = in water; ref Lang et al., 2007; cited from earlier work
Metabolism [3] = conditions: mouse liver microsomes, 50 μM BA, pH 7.4, 35 °C; for oxygen consumption rates, NADPH-dependent metabolism, comparison: p<0.05; for relative oxygen consumption rates, NADH-dependent metabolism, rank order: > indicates p<0.05
[4] = Quinone/hydroquinone cycling in microsomal incubations; conditions: microsomal incubation with NAD(P)H; data not shown
[5] = molecular target: recombinant human NQO1 (rhNQO1) (Homo sapiens, UniProt P15559); experiment: Relative stability of hydroquinone ansamycins; assay type: physicochemical; conditions: for relative stability of BAH2 (nmol oxygen consumption per nmol NADH oxidized), rank order: 50 mM potassium phosphate buffer, pH 7.4, 35 °C, BAH2 generated by rhNQO1 and NADH, > indicates p<0.05
recombinant human NQO1 (rhNQO1), sequence (P15559 whole entry): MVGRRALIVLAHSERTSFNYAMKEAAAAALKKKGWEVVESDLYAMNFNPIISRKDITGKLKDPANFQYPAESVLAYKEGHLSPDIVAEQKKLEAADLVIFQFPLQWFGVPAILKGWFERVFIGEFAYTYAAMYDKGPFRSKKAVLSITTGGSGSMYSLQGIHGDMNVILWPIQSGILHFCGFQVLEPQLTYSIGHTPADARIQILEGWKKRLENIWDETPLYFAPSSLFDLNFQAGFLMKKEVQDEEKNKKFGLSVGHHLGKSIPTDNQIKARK

Metabolism [6] = conditions: human liver microsomes, 50 μM BA, pH 7.4, 35 °C, > indicates p<0.05
rhNQO1 = rhNQO1 (Homo sapiens, UniProt P15559); experiment: Prevention of GM and 17DMAG glutathione conjugate formation by rhNQO1; assay type: biochemical; conditions: for prevention of conjugation with glutathione by NQO1 reduction: 50 μM BA, 5 mM GSH, 11.8 μg rhNQO1, 500 μM NADH, pH 7.4, room temperature
rhNQO1, sequence (P15559 whole entry): as above

[7] = 5 min, 50 μM, pH 7.4
[8] = molecular target: T1, human NADPH-cytochrome P450 reductase (Homo sapiens, UniProt P16435); conditions: GM, NADH and NADPH-cytochrome P450 reductase, no NADPH
T1 sequence (P16435 1-677): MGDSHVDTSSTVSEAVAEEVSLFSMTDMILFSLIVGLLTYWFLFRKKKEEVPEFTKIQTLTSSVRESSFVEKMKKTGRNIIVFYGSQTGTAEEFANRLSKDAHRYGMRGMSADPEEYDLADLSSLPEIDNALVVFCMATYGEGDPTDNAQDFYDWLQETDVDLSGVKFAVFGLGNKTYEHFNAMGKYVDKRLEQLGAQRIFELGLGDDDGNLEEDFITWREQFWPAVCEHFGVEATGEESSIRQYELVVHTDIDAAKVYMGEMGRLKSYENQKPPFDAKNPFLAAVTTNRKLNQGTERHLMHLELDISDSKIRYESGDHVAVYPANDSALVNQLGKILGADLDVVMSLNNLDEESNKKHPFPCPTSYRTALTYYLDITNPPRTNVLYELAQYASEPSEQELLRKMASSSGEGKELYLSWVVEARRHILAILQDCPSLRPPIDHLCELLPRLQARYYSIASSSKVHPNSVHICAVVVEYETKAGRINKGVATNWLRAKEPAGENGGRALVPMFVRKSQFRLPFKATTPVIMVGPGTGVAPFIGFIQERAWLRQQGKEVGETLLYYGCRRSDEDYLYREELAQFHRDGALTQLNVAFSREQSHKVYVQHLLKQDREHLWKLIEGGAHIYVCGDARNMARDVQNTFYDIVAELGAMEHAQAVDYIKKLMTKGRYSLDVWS

SMILES | oxygen consumption rates, NADPH-dependent metabolism, comparison (Metabolism [3]) | compound in the quinone form on HPLC [4] | relative stability of BAH2 (nmol oxygen consumption per nmol NADH oxidized), rank order [5] | relative rate of glutathione conjugate formation, rank order [1] | relative oxygen consumption rates, NADH-dependent metabolism, rank order (Metabolism [3]) | relative oxygen consumption rates, NADH-dependent metabolism, rank order (Metabolism [6]) | relative oxygen consumption rates, NADPH-dependent metabolism, rank order (Metabolism [6]) | other results
C=CCNC1=C2C[C@@H](C)C[C@H](OC)[C@H](O)[C@@H](C)/C=C(\C)[C@H](OC(N)=O)[C@@H](OC)/C=C\C=C(/C)C(=O)NC(=CC1=O)C2=O [17AAG, 17-(allylamino)-17-demethoxygeldanamycin] | significantly slower compared to GM | > 95% |  |  |  |  |  | fraction of BA conjugated with glutathione ([1]; after 24 hours): less than 15%; one-electron redox potential [2]: −0.390 V
C=CCNc1c(O)cc2c(O)c1C[C@@H](C)C[C@H](OC)[C@H](O)[C@@H](C)/C=C(\C)[C@H](OC(N)=O)[C@@H](OC)/C=C\C=C(/C)C(=O)N2 [17AAGH2, 17-(allylamino)-17-demethoxygeldanamycin hydroquinone] |  |  | GMH2>17AAGH2>17DMAGH2>17AGH2, 17AEP-GAH2 |  |  |  |  | 
CO[C@H]1/C=C\C=C(/C)C(=O)NC2=CC(=O)C(NCCN3CCCC3)=C(C[C@@H](C)C[C@H](OC)[C@H](O)[C@@H](C)/C=C(\C)[C@@H]1OC(N)=O)C2=O [17AEP-GA, 17-demethoxy-17-[[2-(pyrrolidin-1-yl)ethyl]amino]-geldanamycin] | significantly greater than 17AAG |  |  | GM>17DMAG>17AEP-GA>17AAG, 17AG | GM>17DMAG>17AG, 17AEP-GA, 17AAG | GM>17DMAG, 17AG, 17AEP-GA>17AAG | GM, 17DMAG, 17AEP-GA>17AG>17AAG | fraction of BA conjugated with glutathione ([1]; within 10 hours): about 90%
COC1C=CC=C(C)C(=O)Nc2cc(O)c(NCCN3CCCC3)c(c2O)CC(C)CC(OC)C(O)C(C)C=C(C)C1OC(N)=O (stereo not shown) [17AEP-GAH2, 17-demethoxy-17-[[2-(pyrrolidin-1-yl)ethyl]amino]-geldanamycin hydroquinone] |  |  | GMH2>17AAGH2>17DMAGH2>17AGH2, 17AEP-GAH2 |  |  |  |  | half-life of auto-oxidation of BAH2 back to quinone (in words) ([5]; auto-oxidation over time): a few minutes
CO[C@H]1/C=C\C=C(/C)C(=O)NC2=CC(=O)C(N)=C(C[C@@H](C)C[C@H](OC)[C@H](O)[C@@H](C)/C=C(\C)[C@@H]1OC(N)=O)C2=O [17AG, 17-(amino)-17-demethoxygeldanamycin] | significantly greater than 17AAG | > 95% |  | GM>17DMAG>17AEP-GA>17AAG, 17AG | GM>17DMAG>17AG, 17AEP-GA, 17AAG | GM>17DMAG, 17AG, 17AEP-GA>17AAG | GM, 17DMAG, 17AEP-GA>17AG>17AAG | fraction of BA conjugated with glutathione ([1]; after 24 hours): less than 15%
COC1C=CC=C(C)C(=O)Nc2cc(O)c(N)c(c2O)CC(C)CC(OC)C(O)C(C)C=C(C)C1OC(N)=O (stereo not shown) [17AGH2, 17-(amino)-17-demethoxygeldanamycin hydroquinone] |  |  | GMH2>17AAGH2>17DMAGH2>17AGH2, 17AEP-GAH2 |  |  |  |  | 
CO[C@H]1/C=C\C=C(/C)C(=O)NC2=CC(=O)C(NCCN(C)C)=C(C[C@@H](C)C[C@H](OC)[C@H](O)[C@@H](C)/C=C(\C)[C@@H]1OC(N)=O)C2=O [17DMAG, 17-demethoxy-17-[[2-(dimethylamino)ethyl]amino]-geldanamycin] | significantly greater than 17AAG | > 95% |  | GM>17DMAG>17AEP-GA>17AAG, 17AG | GM>17DMAG>17AG, 17AEP-GA, 17AAG | GM>17DMAG, 17AG, 17AEP-GA>17AAG | GM, 17DMAG, 17AEP-GA>17AG>17AAG | glutathione conjugate (17DMAG-SG) formed ([1]; 5 mM reduced glutathione, phosphate buffer pH 7.4, room temperature, within 4 hours): approximately 47 μM; prevention of conjugation with glutathione by NQO1 reduction (rhNQO1): > 95%
CO[C@H]1/C=C\C=C(/C)C(=O)Nc2cc(O)c(NCCN(C)C)c(c2O)C[C@@H](C)C[C@H](OC)[C@H](O)[C@@H](C)/C=C(\C)[C@@H]1OC(N)=O [17DMAGH2, 17-demthoxy-17-[[2-(dimethylamino)ethyl]amino]-geldanamycin hydroquinone] |  |  | GMH2>17AAGH2>17DMAGH2>17AGH2, 17AEP-GAH2 |  |  |  |  | 
COC1=CC(=O)c2c(c(COc3ccc([N+](=O)[O-])cc3)c(C)n2C)C1=O [ES936, 5-methoxy-1,2-dimethyl-3-[(4-nitrophenoxy)methyl]indole-4,7-dione] |  |  |  |  |  |  |  | effect on NQO1-mediated prevention of BA glutathione conjugation (rhNQO1; pretreatment with 2 μM ES936, GM or 17DMAG with NADH, rhNQO1 and glutathione): abrogated
COC1=C2C[C@@H](C)C[C@H](OC)[C@H](O)[C@@H](C)/C=C(\C)[C@H](OC(N)=O)[C@@H](OC)/C=C\C=C(/C)C(=O)NC(=CC1=O)C2=O [GM, geldanamycin] | significantly greater than 17AAG | about 70% |  | GM>17DMAG>17AEP-GA>17AAG, 17AG | GM>17DMAG>17AG, 17AEP-GA, 17AAG | GM>17DMAG, 17AG, 17AEP-GA>17AAG | GM, 17DMAG, 17AEP-GA>17AG>17AAG | one-electron redox potential [2]: −0.243 V; glutathione conjugate (GMH2-SG) formed [7]: approximately 45 μM; oxygen consumption with NADH as cofactor [8]: no oxygen consumption was observed; prevention of conjugation with glutathione by NQO1 reduction (rhNQO1): > 95%
COc1c(O)cc2c(O)c1C[C@@H](C)C[C@H](OC)[C@H](O)[C@@H](C)/C=C(\C)[C@H](OC(N)=O)[C@@H](OC)/C=C\C=C(/C)C(=O)N2 [GMH2, geldanamycin hydroquinone] |  |  | GMH2>17AAGH2>17DMAGH2>17AGH2, 17AEP-GAH2 |  |  |  |  | half-life of auto-oxidation of BAH2 back to quinone ([5]; auto-oxidation over time): about 20 hours
